# Values quoted from earlier work as cited in patent US11844836B2, “Topical pharmaceutical composition based on semifluorinated alkanes” (DERMALIQ THERAPEUTICS, INC., priority 2011, dated 2023).
# Conditions: testosterone as model drug; pig skin; Hardung, Doctoral Thesis 2008, p. 103
structure (smiles),measurement,value
CCCCCCCCC(F)(F)C(F)(F)C(F)(F)C(F)(F)C(F)(F)C(F)(F)F [F6H8],penetration-enhancing effect of the SFA carrier,does not affect an improved penetration into the skin
